From ChEMBL document CHEMBL4033665, “Synthesis and applications of benzohydroxamic acid-based histone deacetylase inhibitors” (Eur J Med Chem, 2017) come the findings set out here.

Each structure is given as a SMILES string.

The target of test [1] is T1, Histone deacetylase 3 (Homo sapiens, UniProt O15379). The test can be described thus: Inhibition of C-terminal His-tagged full length human HDAC3 expressed in baculovirus expression system using AMC-labeled RHKKAc as substrate after 2 hrs by fluorescence assay.
T1 sequence (O15379 whole entry): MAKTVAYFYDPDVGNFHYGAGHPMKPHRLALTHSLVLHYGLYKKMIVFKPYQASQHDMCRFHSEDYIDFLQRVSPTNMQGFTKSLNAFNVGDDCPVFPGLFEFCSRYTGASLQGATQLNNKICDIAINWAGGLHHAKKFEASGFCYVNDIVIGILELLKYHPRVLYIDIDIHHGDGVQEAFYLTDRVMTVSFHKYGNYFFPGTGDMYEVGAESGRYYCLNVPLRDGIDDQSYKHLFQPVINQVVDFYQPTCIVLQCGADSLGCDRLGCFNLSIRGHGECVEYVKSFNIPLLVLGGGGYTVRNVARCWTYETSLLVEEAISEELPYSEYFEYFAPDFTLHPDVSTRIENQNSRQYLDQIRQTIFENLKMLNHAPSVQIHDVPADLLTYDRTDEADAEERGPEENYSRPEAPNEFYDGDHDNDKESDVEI
Test [2] addresses T2, Protein deacetylase HDAC6 (Homo sapiens, UniProt Q9UBN7).
T2 sequence (Q9UBN7 whole entry): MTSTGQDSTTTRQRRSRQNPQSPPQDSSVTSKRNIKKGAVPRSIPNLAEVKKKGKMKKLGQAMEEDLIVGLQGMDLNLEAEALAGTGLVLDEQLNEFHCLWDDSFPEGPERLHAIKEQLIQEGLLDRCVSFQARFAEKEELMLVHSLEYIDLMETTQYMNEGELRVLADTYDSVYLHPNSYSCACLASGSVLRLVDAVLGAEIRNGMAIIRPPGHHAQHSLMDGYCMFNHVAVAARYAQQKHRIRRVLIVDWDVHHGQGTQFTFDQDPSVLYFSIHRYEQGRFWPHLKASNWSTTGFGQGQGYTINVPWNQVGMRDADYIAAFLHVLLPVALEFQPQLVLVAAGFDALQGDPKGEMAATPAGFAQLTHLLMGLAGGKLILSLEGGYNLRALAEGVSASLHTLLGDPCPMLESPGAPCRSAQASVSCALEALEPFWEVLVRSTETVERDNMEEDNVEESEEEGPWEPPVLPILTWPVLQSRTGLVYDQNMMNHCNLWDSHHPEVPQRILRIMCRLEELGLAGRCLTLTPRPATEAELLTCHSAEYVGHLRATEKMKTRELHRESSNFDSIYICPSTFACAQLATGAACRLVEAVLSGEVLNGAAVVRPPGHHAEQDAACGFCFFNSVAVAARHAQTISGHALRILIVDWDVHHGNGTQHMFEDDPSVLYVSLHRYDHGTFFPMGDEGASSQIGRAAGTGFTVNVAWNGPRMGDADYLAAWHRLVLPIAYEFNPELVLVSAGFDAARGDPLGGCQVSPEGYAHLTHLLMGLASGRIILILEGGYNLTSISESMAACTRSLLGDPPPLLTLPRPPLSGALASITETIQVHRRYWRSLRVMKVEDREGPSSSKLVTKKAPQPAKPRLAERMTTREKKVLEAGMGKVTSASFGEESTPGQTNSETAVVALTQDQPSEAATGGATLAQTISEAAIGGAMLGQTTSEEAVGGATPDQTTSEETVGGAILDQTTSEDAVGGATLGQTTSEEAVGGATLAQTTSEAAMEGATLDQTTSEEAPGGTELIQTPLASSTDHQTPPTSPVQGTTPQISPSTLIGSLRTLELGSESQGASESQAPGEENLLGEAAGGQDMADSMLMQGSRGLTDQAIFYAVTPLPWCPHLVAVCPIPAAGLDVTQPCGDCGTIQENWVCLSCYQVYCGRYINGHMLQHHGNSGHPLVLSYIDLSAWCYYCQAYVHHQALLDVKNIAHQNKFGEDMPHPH
Put plainly: Inhibition of N-terminal GST-tagged full length human HDAC6 expressed in baculovirus expression system in Sf9 cells using AMC-labeled RHKKAc as substrate after 2 hrs by fluorescence assay.

The target of test [3] is T3, Histone deacetylase 1 (Homo sapiens, UniProt Q13547). Put plainly: Inhibition of C-terminal GST-tagged full length human HDAC1 expressed in baculovirus expression system in Sf9 cells using AMC-labeled RHKKAc as substrate after 2 hrs by fluorescence assay.
T3 sequence (Q13547 whole entry): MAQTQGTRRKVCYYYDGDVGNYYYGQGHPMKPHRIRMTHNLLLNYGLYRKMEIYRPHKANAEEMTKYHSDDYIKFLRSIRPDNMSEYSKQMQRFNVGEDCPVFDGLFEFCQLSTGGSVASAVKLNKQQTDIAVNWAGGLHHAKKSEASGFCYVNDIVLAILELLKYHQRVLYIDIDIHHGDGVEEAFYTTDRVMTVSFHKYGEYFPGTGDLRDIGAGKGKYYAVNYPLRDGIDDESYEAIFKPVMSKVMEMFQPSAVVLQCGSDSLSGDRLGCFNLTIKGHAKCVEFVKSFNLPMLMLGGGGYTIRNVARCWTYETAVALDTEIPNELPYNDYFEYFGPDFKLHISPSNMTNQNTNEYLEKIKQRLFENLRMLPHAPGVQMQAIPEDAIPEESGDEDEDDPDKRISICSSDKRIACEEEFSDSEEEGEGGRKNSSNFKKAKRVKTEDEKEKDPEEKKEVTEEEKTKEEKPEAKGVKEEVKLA
In test [4] the target is T1, Histone deacetylase 3. Put plainly: Inhibition of HDAC3 (unknown origin).
Test [5] addresses T3, Histone deacetylase 1. Put plainly: Inhibition of HDAC1 (unknown origin).
For test [6], the target named is T4, Polyamine deacetylase HDAC10 (Homo sapiens, UniProt Q969S8).
T4 sequence (Q969S8 whole entry): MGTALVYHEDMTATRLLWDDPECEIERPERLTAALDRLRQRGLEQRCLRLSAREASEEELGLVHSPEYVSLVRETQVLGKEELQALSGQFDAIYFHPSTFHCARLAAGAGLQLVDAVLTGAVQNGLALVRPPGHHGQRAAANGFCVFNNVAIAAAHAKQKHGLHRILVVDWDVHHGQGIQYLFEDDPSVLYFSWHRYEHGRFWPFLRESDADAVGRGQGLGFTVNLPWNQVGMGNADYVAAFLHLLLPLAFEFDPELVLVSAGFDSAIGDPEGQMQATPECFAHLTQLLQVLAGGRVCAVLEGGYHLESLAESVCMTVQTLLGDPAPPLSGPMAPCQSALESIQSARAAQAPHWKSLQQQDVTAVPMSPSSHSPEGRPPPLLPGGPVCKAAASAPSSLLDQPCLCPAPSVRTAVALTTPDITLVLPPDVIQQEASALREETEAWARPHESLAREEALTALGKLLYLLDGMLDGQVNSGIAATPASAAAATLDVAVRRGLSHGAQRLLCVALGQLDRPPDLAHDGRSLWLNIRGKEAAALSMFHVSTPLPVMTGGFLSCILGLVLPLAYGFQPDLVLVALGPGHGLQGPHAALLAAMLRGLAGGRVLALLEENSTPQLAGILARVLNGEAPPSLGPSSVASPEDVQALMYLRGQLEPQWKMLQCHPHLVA
Put plainly: Inhibition of HDAC10 (unknown origin).

Another test addresses Histone deacetylase 4 (Homo sapiens, UniProt P56524). The test can be described thus: Inhibition of HDAC4 (unknown origin).
The next test deals with Histone deacetylase 5 (Homo sapiens, UniProt Q9UQL6). Put plainly: Inhibition of HDAC5 (unknown origin).
Chain of Histone deacetylase 5 (Q9UQL6 whole entry): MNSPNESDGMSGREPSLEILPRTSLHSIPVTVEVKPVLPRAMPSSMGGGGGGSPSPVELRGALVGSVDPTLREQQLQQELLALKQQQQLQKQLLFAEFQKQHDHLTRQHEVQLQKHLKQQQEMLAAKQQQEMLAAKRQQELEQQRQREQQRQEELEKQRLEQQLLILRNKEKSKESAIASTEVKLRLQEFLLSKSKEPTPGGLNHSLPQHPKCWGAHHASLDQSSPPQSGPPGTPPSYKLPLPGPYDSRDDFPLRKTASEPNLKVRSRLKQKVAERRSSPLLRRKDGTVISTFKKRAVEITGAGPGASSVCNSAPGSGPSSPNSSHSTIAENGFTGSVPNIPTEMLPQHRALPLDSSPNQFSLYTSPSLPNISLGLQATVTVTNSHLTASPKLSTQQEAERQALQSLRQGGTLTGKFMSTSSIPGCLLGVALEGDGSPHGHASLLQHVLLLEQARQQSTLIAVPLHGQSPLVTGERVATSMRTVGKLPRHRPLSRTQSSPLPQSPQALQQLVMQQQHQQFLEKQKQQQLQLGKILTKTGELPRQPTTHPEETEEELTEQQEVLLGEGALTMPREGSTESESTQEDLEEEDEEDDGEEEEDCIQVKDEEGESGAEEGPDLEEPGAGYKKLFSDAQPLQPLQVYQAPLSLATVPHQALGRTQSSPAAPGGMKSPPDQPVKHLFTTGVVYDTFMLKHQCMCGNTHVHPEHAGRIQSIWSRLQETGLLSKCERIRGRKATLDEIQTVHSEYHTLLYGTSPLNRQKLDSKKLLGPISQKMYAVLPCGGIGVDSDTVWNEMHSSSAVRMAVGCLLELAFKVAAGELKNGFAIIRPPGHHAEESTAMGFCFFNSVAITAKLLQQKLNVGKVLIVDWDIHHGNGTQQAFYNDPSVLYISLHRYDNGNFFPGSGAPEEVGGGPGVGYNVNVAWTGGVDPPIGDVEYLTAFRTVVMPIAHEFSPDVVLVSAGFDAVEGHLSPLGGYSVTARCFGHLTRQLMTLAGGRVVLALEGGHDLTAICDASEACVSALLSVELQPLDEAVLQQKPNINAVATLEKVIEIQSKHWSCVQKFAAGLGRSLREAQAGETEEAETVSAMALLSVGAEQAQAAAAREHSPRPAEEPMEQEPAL
The next test deals with T5, Histone deacetylase 8 (Homo sapiens, UniProt Q9BY41).
T5 sequence (Q9BY41 whole entry): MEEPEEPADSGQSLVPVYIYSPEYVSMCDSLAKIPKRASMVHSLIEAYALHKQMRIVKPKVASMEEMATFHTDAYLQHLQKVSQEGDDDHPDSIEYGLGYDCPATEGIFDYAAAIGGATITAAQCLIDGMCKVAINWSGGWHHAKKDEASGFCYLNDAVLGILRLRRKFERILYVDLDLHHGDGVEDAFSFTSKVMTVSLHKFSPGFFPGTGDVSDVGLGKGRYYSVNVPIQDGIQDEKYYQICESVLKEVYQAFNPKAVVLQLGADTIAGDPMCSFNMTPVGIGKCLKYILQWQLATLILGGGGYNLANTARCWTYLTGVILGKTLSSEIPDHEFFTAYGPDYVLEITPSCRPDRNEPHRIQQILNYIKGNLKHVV
The test can be described thus: Inhibition of HDAC8 (unknown origin).

The target of a further test is Histone deacetylase 2 (Homo sapiens, UniProt Q92769). Put plainly: Inhibition of HDAC2 (unknown origin).
Chain of Histone deacetylase 2 (Q92769 whole entry): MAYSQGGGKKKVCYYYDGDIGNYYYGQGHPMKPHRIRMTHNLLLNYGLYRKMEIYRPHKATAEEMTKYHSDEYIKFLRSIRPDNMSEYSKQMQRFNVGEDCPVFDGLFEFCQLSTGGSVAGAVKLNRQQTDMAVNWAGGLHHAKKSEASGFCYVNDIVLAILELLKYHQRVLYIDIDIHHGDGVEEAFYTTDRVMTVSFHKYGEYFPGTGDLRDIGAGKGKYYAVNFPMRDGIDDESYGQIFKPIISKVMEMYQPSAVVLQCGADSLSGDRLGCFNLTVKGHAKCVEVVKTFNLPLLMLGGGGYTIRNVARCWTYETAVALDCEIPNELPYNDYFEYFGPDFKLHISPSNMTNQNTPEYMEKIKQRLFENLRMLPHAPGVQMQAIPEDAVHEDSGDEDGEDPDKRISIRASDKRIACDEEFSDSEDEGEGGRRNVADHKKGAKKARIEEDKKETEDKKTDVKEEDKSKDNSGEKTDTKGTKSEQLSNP
The next test deals with Histone deacetylase 9 (Homo sapiens, UniProt Q9UKV0). The test can be described thus: Inhibition of HDAC9 (unknown origin).
Chain of Histone deacetylase 9 (Q9UKV0 whole entry): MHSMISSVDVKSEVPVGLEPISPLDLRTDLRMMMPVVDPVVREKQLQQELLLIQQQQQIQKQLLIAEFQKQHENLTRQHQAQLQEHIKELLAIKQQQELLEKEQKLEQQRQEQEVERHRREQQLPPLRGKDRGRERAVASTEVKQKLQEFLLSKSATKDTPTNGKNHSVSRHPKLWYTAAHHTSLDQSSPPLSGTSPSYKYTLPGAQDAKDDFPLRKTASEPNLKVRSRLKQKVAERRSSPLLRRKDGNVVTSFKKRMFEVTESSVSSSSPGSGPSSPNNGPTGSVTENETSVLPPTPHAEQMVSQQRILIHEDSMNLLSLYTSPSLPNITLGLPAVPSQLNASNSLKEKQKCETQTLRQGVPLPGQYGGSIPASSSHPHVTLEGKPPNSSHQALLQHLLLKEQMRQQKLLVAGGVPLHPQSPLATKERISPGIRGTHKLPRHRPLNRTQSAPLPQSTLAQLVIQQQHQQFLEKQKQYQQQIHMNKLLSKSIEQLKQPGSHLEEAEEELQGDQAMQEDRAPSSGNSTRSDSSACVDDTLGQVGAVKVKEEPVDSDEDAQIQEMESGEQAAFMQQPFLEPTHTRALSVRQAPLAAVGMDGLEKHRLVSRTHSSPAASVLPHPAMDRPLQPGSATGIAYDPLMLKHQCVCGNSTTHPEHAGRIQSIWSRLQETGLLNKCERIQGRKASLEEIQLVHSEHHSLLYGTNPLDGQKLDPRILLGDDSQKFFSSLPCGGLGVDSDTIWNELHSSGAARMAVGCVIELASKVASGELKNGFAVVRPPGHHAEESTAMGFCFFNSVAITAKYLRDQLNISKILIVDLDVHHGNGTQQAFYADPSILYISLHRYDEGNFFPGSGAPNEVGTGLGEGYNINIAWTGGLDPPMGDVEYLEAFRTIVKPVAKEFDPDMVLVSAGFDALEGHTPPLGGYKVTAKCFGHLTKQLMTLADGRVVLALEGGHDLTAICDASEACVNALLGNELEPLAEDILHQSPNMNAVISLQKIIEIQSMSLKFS
The next test has as its target T6, Histone deacetylase 11 (Homo sapiens, UniProt Q96DB2).
T6 sequence (Q96DB2 whole entry): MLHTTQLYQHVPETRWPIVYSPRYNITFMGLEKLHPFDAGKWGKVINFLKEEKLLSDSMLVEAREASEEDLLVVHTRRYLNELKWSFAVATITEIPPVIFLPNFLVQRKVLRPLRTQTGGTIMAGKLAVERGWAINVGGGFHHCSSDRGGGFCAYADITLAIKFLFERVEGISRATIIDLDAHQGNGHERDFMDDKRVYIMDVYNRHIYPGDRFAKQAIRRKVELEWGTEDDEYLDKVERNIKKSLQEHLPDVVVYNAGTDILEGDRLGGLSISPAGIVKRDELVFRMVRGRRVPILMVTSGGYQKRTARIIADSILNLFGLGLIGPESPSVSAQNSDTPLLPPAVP
Put plainly: Inhibition of HDAC11 (unknown origin).

In test [7] the target is T2, Protein deacetylase HDAC6. The test can be described thus: Inhibition of HDAC6 (unknown origin).
The target of test [8] is T2, Protein deacetylase HDAC6. Put plainly: Inhibition of recombinant human HDAC6 using Boc-Lys(acetyl)-AMC as substrate after 1 hr by fluorescence assay.
Another test deals with T7, Histone deacetylase 7 (Homo sapiens, UniProt Q8WUI4).
T7 sequence (Q8WUI4 whole entry): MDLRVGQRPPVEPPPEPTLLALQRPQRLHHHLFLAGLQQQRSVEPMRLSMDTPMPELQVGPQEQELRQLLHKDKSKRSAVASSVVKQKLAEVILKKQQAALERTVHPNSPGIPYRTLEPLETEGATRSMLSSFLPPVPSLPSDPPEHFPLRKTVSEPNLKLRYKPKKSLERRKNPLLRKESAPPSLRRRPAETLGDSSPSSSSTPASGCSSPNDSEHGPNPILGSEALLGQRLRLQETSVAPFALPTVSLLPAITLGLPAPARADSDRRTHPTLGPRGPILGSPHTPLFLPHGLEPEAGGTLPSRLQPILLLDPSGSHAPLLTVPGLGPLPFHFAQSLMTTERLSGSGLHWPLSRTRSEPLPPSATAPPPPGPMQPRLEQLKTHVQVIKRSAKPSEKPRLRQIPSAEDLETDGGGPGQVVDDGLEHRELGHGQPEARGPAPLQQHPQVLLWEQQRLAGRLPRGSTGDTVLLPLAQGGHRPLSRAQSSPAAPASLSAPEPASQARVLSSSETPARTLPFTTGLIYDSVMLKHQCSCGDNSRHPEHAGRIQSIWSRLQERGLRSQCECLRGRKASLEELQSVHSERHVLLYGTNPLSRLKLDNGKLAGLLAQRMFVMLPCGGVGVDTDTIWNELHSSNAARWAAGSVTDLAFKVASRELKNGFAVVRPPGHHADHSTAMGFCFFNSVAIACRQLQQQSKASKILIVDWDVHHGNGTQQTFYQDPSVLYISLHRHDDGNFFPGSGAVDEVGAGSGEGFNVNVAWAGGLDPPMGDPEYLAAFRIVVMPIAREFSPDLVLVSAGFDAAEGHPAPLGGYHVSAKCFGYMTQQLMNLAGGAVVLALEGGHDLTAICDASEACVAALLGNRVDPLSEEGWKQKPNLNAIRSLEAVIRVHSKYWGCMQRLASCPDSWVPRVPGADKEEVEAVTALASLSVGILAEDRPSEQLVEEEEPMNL
Put plainly: Inhibition of HDAC7 (unknown origin).

Chain of Histone deacetylase 4 (P56524 whole entry): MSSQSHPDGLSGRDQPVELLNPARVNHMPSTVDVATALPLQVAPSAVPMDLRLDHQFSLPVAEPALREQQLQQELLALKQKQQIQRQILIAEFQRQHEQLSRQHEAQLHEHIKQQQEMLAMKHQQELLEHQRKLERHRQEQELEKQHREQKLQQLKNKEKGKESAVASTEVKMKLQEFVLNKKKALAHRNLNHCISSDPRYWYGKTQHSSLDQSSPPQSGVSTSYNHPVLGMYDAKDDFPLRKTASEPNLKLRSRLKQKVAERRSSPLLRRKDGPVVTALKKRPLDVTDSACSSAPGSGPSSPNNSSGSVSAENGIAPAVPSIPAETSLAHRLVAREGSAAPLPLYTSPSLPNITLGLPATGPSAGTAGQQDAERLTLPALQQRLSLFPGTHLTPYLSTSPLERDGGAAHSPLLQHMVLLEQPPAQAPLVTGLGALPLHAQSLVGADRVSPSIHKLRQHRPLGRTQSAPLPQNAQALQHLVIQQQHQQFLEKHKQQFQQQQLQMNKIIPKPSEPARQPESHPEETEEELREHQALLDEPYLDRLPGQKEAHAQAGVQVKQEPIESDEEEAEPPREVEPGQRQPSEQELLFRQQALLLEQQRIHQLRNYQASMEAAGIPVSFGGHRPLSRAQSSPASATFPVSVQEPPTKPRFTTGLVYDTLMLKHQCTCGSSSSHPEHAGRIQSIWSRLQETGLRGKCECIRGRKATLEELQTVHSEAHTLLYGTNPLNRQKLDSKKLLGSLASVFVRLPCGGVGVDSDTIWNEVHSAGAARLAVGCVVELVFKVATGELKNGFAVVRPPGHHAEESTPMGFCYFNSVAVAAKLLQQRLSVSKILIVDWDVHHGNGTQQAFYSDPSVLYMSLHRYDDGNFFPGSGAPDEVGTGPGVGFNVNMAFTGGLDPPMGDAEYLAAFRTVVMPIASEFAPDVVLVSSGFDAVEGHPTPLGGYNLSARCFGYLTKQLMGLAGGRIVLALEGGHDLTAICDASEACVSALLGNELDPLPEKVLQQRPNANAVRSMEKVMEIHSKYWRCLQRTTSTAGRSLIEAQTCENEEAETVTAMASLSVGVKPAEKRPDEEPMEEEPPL

On to `COc1ccc(-c2cc(-c3ccoc3)c(C(=O)NCc3ccc(C(=O)NO)cc3)[nH]2)cc1`, for which the IC50 on Histone deacetylase 3 [1] was determined as 0.08 µM; in test [2], 0.002 µM; on Histone deacetylase 1 [3] it was 0.07 µM.

Take `O=C(/C=C/c1cccc(C(=O)NO)c1)NO`: the 50% inhibitory concentration (IC50) turned out to be 0.07 µM at Histone deacetylase 3 [4] and 0.01 µM against Histone deacetylase 1 [5].

Turning to `O=C(NO)c1ccc(CN2c3ccccc3S(=O)(=O)C[C@H]3CCCC[C@H]32)cc1`, the IC50 in [6] is 10 µM; against Histone deacetylase 3 [4], 24 µM; against Histone deacetylase 4, more than 30 µM; against Histone deacetylase 5 it was 9.1 µM; at Histone deacetylase 8, 1.1 µM; on Histone deacetylase 1 [5] it was 8.1 µM. Further, the half-maximal inhibitory concentration (IC50) at Histone deacetylase 2 was 24 µM; on Histone deacetylase 9 it was 13 µM; against Histone deacetylase 11, 2.4 µM; in test [7], 0.008 µM.

With `O=C(Cc1ccc(C(=O)NO)cc1)NC1=CC(=O)c2ccccc2C1=O`, the half-maximal inhibitory concentration (IC50) in [8] stood at 0.006 µM.

Take `Cc1nc2ccccc2n1Cc1ccc(C(=O)NO)cc1F`: the IC50 in test [6] amounted to 20.4 µM; at Histone deacetylase 3 [4], 12.5 µM; against Histone deacetylase 4, 0.5 µM; at Histone deacetylase 5, 0.2 µM; against Histone deacetylase 8, 0.2 µM; on Histone deacetylase 2, 20.3 µM. In addition, the IC50 at Histone deacetylase 11 amounted to 12.9 µM; in test [7], 0.0008 µM.

For `O=C(NO)c1ccc(NCc2csc3ccc(Br)cc23)cc1`, the 50% inhibitory concentration (IC50) at Histone deacetylase 3 [4], against Histone deacetylase 1 [5] and at Histone deacetylase 7 was more than 10 µM in each case.
